*1 amine or outer side, *2 acyl side, *3 side chain or, on linkers, in order; H or OH if unused. Where a SMILES comes first, the peptide text is derived from it. The star is where a group is joined. NH(CH2)4NH(7-Cl-4-quinolyl) = Clc1ccc2c(NCCCCN*)ccnc2c1; Suc = O=C(CCC(=O)[*:2])[*:1]
Tested on: not listed separately
Assay: In vitro hemolytic activity on Plasmodium-infected erythrocyte cultures
Type: cell-based
Conditions: cultures with 3% PiRBC, dash with footnote c = hemolysis not detected, read-out: % hemolysis at 10 µM ± SD (n = 3), PiRBC
Procedure: (§1) For positive and negative controls, 1% Triton X-100 and PBS were added, respectively. After this period, the plates were centrifuged and supernatants transferred to another plate. Supernatant absorbance at 450 nm was assessed in a multi-mode microplate reader (Triad, Dynex Technologies, Chantilly, VA, USA) and values were treated using the following equation (1):(1) % Hemolysis=Abs−Abs(negative control)/Abs(positive control)−Abs(negative control)

Point of comparison: CC[C@H](C)[C@H](NC(=O)[C@H](CCCCN)NC(=O)[C@H](CCCCN)NC(=O)[C@H](C)NC(=O)[C@H](CC(C)C)NC(=O)[C@H](C)NC(=O)[C@H](C)NC(=O)[C@H](CC(C)C)NC(=O)[C@H](C)NC(=O)[C@H](CCCCN)NC(=O)[C@H](CC(C)C)NC(=O)[C@H](CC(N)=O)NC(=O)[C@@H](NC(=O)[C@H](CCCCN)NC(=O)CNC(=O)[C@H](CC(C)C)NC(=O)[C@H](CC(C)C)NC(=O)[C@H](Cc1ccc(O)cc1)NC(=O)CNC(=O)[C@H](C)NC(=O)CCC(=O)NCCCC(C)Nc1cc(OC)cc2cccnc12)[C@@H](C)CC)C(=O)N[C@@H](CC(C)C)C(N)=O (some centres unmarked) [3a], hemolysis at 1 h, 10 µM 49 ± 7%. Against it:
- CC[C@H](C)[C@H](NC(=O)[C@H](CCCCN)NC(=O)[C@H](CCCCN)NC(=O)[C@H](C)NC(=O)[C@H](CC(C)C)NC(=O)[C@H](C)NC(=O)[C@H](C)NC(=O)[C@H](CC(C)C)NC(=O)[C@H](C)NC(=O)[C@H](CCCCN)NC(=O)[C@H](CC(C)C)NC(=O)[C@H](CC(N)=O)NC(=O)[C@@H](NC(=O)[C@H](CCCCN)NC(=O)CNC(=O)[C@H](CC(C)C)NC(=O)[C@H](CC(C)C)NC(=O)[C@H](Cc1ccc(O)cc1)NC(=O)CNC(=O)[C@H](C)N)[C@@H](C)CC)C(=O)N[C@@H](CC(C)C)C(=O)N[C@@H](CSSC[C@H](N)C(=O)NCCCC(C)Nc1cc(OC)cc2cccnc12)C(N)=O (some centres unmarked) [14′] — higher, 72 ± 9%

Tested on: P. falciparum W2
Assay: not given
Type: cell-based
Conditions: P. falciparum W2 (CQ-resistant), 48 h, n = 3
Procedure: All conjugates and their respective parent CPP (Table 1), were screened in vitro for their antiplasmodial activity, using the CQ-resistant P. falciparum W2 strain. The primaquine analogue to 5a, i.e., conjugate 3 where the CPP is TP10, PQ-C4-TP10 (3a), was also included in the study for comparison.
Synchronized ring-stage P. falciparum parasites (W2 strain) were incubated with test compounds for 48 h in Roswell Park Memorial Institute (RPMI) 1640 medium containing 10% human serum or 0.5% Albumax serum substitute. Parasites were then fixed with 1% formaldehyde in phosphate-buffered saline (PBS), pH 7.4, for […] at RT and labeled with YOYO-1 (1 nM; molecular probes) in 0.1% Triton X-100 in PBS. Parasitemias were determined by flow cytometry, from dot plots (forward scatter versus fluorescence). For 50% inhibitory concentration (IC50) determinations, dose-response studies were performed, with the values normalized to percent control activity, and IC50s were calculated using GraphPad Prism, with data fitted by nonlinear regression.

Point of comparison: CC[C@H](C)[C@H](NC(=O)[C@H](CC(C)C)NC(=O)[C@H](Cc1ccccc1)NC(=O)[C@H](Cc1ccccc1)NC(=O)CCC(=O)NCCCCNc1ccnc2cc(Cl)ccc12)C(=O)N1CCC[C@H]1C(=O)N[C@@H](CCCCN)C(=O)NCC(=O)NCC(=O)N[C@@H](CCCNC(=N)N)C(=O)N[C@@H](CCCCN)C(=O)N[C@@H](CCCCN)C(=O)N[C@@H](CCCNC(=N)N)C(=O)N[C@@H](CCCNC(=N)N)C(=O)N[C@@H](CCC(N)=O)C(=O)N[C@@H](CCCNC(=N)N)C(=O)N[C@@H](CCCNC(=N)N)C(=O)N[C@@H](CCCNC(=N)N)C(=O)N1CCC[C@H]1C(=O)N1CCC[C@H]1C(=O)N[C@@H](CCC(N)=O)C(N)=O [5g] ({NH(CH2)4NH(7-Cl-4-quinolyl)-Suc}-FFLIPKGGRKKRRQRRRPPQ-NH2), IC50 8.5 µM. Against it:
- CC[C@H](C)[C@H](NC(=O)[C@H](CCCCN)NC(=O)[C@H](CCCCN)NC(=O)[C@H](C)NC(=O)[C@H](CC(C)C)NC(=O)[C@H](C)NC(=O)[C@H](C)NC(=O)[C@H](CC(C)C)NC(=O)[C@H](C)NC(=O)[C@H](CCCCN)NC(=O)[C@H](CC(C)C)NC(=O)[C@H](CC(N)=O)NC(=O)[C@@H](NC(=O)[C@H](CCCCN)NC(=O)CNC(=O)[C@H](CC(C)C)NC(=O)[C@H](CC(C)C)NC(=O)[C@H](Cc1ccc(O)cc1)NC(=O)CNC(=O)[C@H](C)NC(=O)[C@H](CO)NC(=O)[C@H](CC(N)=O)NC(=O)[C@H](CC(C)C)NC(=O)[C@@H](NC(=O)[C@H](Cc1c[nH]c2ccccc12)NC(=O)CNC(=O)CCC(=O)NCCCCNc1ccnc2cc(Cl)ccc12)[C@@H](C)O)[C@@H](C)CC)C(=O)N[C@@H](CC(C)C)C(N)=O [5b] — 1.6-fold lower, 5.2 µM
- CC[C@H](C)[C@H](NC(=O)[C@H](CCCCN)NC(=O)[C@@H](NC(=O)[C@H](CCC(=O)O)NC(=O)[C@H](CCCNC(=N)N)NC(=O)[C@H](CCCCN)NC(=O)[C@@H](NC(=O)[C@H](CCCCN)NC(=O)[C@H](CCCCN)NC(=O)[C@H](CCCCN)NC(=O)[C@H](CCCCN)NC(=O)[C@@H](NC(=O)CCC(=O)NCCCCNc1ccnc2cc(Cl)ccc12)C(C)C)[C@@H](C)CC)[C@@H](C)CC)C(N)=O [5c] ({NH(CH2)4NH(7-Cl-4-quinolyl)-Suc}-VKKKKIKREIKI-NH2) — higher, > 10 µM
- CC[C@H](C)[C@H](NC(=O)[C@H](CC(C)C)NC(=O)[C@H](CCCNC(=N)N)NC(=O)[C@H](CCCCN)NC(=O)[C@H](CCC(N)=O)NC(=O)[C@H](CCCNC(=N)N)NC(=O)[C@@H](NC(=O)[C@H](CC(C)C)NC(=O)[C@H](CCCNC(=N)N)NC(=O)[C@H](CCCCN)NC(=O)[C@H](CCC(N)=O)NC(=O)[C@H](CCCNC(=N)N)NC(=O)[C@@H](NC(=O)[C@H](CC(C)C)NC(=O)[C@H](CCCNC(=N)N)NC(=O)[C@H](CCCCN)NC(=O)[C@H](CCC(N)=O)NC(=O)[C@H](CCCNC(=N)N)NC(=O)CCC(=O)NCCCCNc1ccnc2cc(Cl)ccc12)[C@@H](C)CC)[C@@H](C)CC)C(N)=O [5d] ({NH(CH2)4NH(7-Cl-4-quinolyl)-Suc}-RQKRLIRQKRLIRQKRLI-NH2) — higher, > 10 µM
- CC[C@H](C)[C@H](NC(=O)[C@H](CCCNC(=N)N)NC(=O)[C@@H](NC(=O)[C@H](C)NC(=O)[C@@H](NC(=O)[C@@H](NC(=O)[C@H](CC(C)C)NC(=O)[C@H](CCCNC(=N)N)NC(=O)[C@@H](NC(=O)CCC(=O)NCCCCNc1ccnc2cc(Cl)ccc12)C(C)C)[C@@H](C)CC)C(C)C)C(C)C)C(=O)N[C@@H](Cc1c[nH]c2ccccc12)C(=O)N[C@@H](CCCNC(=N)N)C(=O)N[C@@H](CCCNC(=N)N)C(N)=O [5e] ({NH(CH2)4NH(7-Cl-4-quinolyl)-Suc}-VRLIVAVRIWRR-NH2) — higher, > 10 µM
- N=C(N)NCCC[C@H](NC(=O)CNC(=O)CCC(=O)NCCCCNc1ccnc2cc(Cl)ccc12)C(=O)N[C@@H](CCCCN)C(=O)N[C@@H](CCCCN)C(=O)N[C@@H](CCCNC(=N)N)C(=O)N[C@@H](CCCNC(=N)N)C(=O)N[C@@H](CCC(N)=O)C(=O)N[C@@H](CCCNC(=N)N)C(=O)N[C@@H](CCCNC(=N)N)C(=O)N[C@@H](CCCNC(=N)N)C(=O)N1CCC[C@H]1C(=O)N1CCC[C@H]1C(=O)N[C@@H](CCC(N)=O)C(N)=O [5f] — higher, > 10 µM
- N=C(N)NCCC[C@H](NC(=O)[C@H](CCCNC(=N)N)NC(=O)[C@H](CCCNC(=N)N)NC(=O)[C@H](CCCNC(=N)N)NC(=O)[C@H](CCCNC(=N)N)NC(=O)[C@H](CCCNC(=N)N)NC(=O)[C@H](CCCNC(=N)N)NC(=O)[C@H](CCCNC(=N)N)NC(=O)[C@H](CCCNC(=N)N)NC(=O)CCC(=O)NCCCCNc1ccnc2cc(Cl)ccc12)C(N)=O [5h] — higher, > 10 µM

Tested on: not listed separately
Assay: In vitro hemolytic activity on healthy erythrocytes
Type: cell-based
Conditions: healthy erythrocytes (hRBC); 10 µM, 1 h, hRBC only; dash with footnote c = hemolysis not detected; read-out: % hemolysis at 10 µM ± SD (n = 3), hRBC
Procedure: as §1

Point of comparison: CC[C@H](C)[C@H](NC(=O)[C@H](CCCCN)NC(=O)[C@H](CCCCN)NC(=O)[C@H](C)NC(=O)[C@H](CC(C)C)NC(=O)[C@H](C)NC(=O)[C@H](C)NC(=O)[C@H](CC(C)C)NC(=O)[C@H](C)NC(=O)[C@H](CCCCN)NC(=O)[C@H](CC(C)C)NC(=O)[C@H](CC(N)=O)NC(=O)[C@@H](NC(=O)[C@H](CCCCN)NC(=O)CNC(=O)[C@H](CC(C)C)NC(=O)[C@H](CC(C)C)NC(=O)[C@H](Cc1ccc(O)cc1)NC(=O)CNC(=O)[C@H](C)N)[C@@H](C)CC)C(=O)N[C@@H](CC(C)C)C(=O)N[C@@H](CSSC[C@H](N)C(=O)NCCCC(C)Nc1cc(OC)cc2cccnc12)C(N)=O (some centres unmarked) [14′], hemolysis at 1 h, 10 µM 99.7 ± 0.4%. Against it:
- CC[C@H](C)[C@H](NC(=O)[C@H](CCCCN)NC(=O)[C@H](CCCCN)NC(=O)[C@H](C)NC(=O)[C@H](CC(C)C)NC(=O)[C@H](C)NC(=O)[C@H](C)NC(=O)[C@H](CC(C)C)NC(=O)[C@H](C)NC(=O)[C@H](CCCCN)NC(=O)[C@H](CC(C)C)NC(=O)[C@H](CC(N)=O)NC(=O)[C@@H](NC(=O)[C@H](CCCCN)NC(=O)CNC(=O)[C@H](CC(C)C)NC(=O)[C@H](CC(C)C)NC(=O)[C@H](Cc1ccc(O)cc1)NC(=O)CNC(=O)[C@H](C)NC(=O)CCC(=O)NCCCC(C)Nc1cc(OC)cc2cccnc12)[C@@H](C)CC)C(=O)N[C@@H](CC(C)C)C(N)=O (some centres unmarked) [3a] — lower, 89 ± 8%

Reference: publication PMC6943437, “Coupling the Antimalarial Cell Penetrating Peptide TP10 to Classical Antimalarial Drugs Primaquine and Chloroquine Produces Strongly Hemolytic Conjugates” (Molecules, 2019)
